Consider 5 compounds from patent publication US12269823B2, “Crystal form of pyridopyrimidine derivative and preparation method thereof” (JIANGSU HENGRUI MEDICINE CO., LTD., priority 2020, dated 2025).

For series [1], the target named is T1, CYP3A4 (testosterone metabolic site) (Homo sapiens, UniProt P08684).
T1 construct: Human liver microsome (Corning Gentest); tissue Corning Gentest; host or cells: human liver microsomes
The series is described as follows: Inhibition of testosterone metabolic site on human liver microsome CYP3A4. Type of series: in vitro ADME. The conditions noted are these: human liver microsomes, testosterone probe. The procedure: Test example 4. Inhibitory effect of the compound disclosed herein on enzymatic activity of testosterone metabolic site on human liver microsome CYP3A4
The inhibitory effect of the compound disclosed herein on the enzymatic activity of the testosterone metabolic site on human liver microsome CYP3A4 was determined by the following procedures:
• 1. Phosphate buffered saline (PBS), • 2. NADPH (Sigma N-1630), • 3. Human liver microsome (Corning Gentest), • 4. ABI QTrap 4000 LC-MS/MS System (AB Sciex), • 5. Inertsil C8-3 column, 4.6×50 mm, 5 (Dikma, USA), • 6. CYP probe substrate (testosterone/100 μM, SIGMA K1003) and positive control inhibitor (ketoconazole, Dr. Ehrenstorfer GmbH, C17322500). II. Procedures
A 100 mM PBS buffer was prepared and was used to prepare a 2.5 mg/mL microsome solution and a 5 mM NADPH solution. A compound working solution at 5× concentration was serially diluted with PBS (150, 50, 15, 5, 1.5, 0.15, 0.015 and 0 μM). A ketoconazole working solution at 5× concentration was serially diluted with PBS (150, 50, 15, 5, 1.5, 0.15, 0.015 and 0 μM). A dextromethorphan working solution was diluted to 50 μM with PBS. […]
The IC50 values of the drug for testosterone metabolic site on CYP3A4 were calculated by Graphpad Prism and are shown in Table 1-4.
(In general: Liver microsomes are vesicles of endoplasmic reticulum, rich in cytochrome P450 enzymes.)

For series [2], the system named is IL-12 secretion in peripheral blood mononuclear cells (PBMCs). The series is described as follows: Stimulation of IL-12 secretion in PBMCs. Type of series: cell-based, human. The conditions noted are these: 24 h incubation. The procedure: Test example 5. Determination of the ability of the compound disclosed herein to stimulate IL-12 and IFNγ secretion in peripheral blood mononuclear cells (PBMCs) The ability of the compound disclosed herein to stimulate IL-12 and IFNγ secretion in PBMCs was determined by the following procedures:
• 1. RPMI 1640 (Invitrogen, 11875), • 2. FBS (Gibco, 10099-141), • 3. Ficoll-Paque PREMIUM (GE, 17-5442-02), • 4. Trypan blue solution (Sigma, T8154-100ML), • 5. SepMateTM-50 (Stemcell, 15460), • 6. Bright-Line™ cytometer (Sigma, Z359629-1EA), • 7. 96-well flat bottom plate (Corning, 3599), • 8. 96-well v-bottom plate (Corning, 3894), • 9. Human IL-12 ELISA kit (NEOBIOSCIENCE, EHC152.96), • 10. Human IFN γ kit (Cisbio, 62HIFNGPEG), • 11. PHERAStar Multi-Mode Microplate Reader (BMG, PHERAStar). II. Procedures […]
All reagents were equilibrated to room temperature. […] The cells were resuspended in RMPI 1640 culture medium containing 10% FBS, counted and adjusted to 3.33×10^6 cells/mL. […]
The reagents of the Human IL-12 detection kit was equilibrated to room temperature. […] Finally, a terminating solution was added to terminate the reaction, and the plate was detected for the absorbance at 450 nm using a microplate reader. […]
The ability of the compound disclosed herein to stimulate IL-12 and IFNγ secretion in PBMCs was determined by the above test and the MEC values obtained are shown in Table 1-5.

A further series has as its target T2, TLR7 (Homo sapiens, UniProt Q9NYK1).
T2 sequence (Q9NYK1 27-1049): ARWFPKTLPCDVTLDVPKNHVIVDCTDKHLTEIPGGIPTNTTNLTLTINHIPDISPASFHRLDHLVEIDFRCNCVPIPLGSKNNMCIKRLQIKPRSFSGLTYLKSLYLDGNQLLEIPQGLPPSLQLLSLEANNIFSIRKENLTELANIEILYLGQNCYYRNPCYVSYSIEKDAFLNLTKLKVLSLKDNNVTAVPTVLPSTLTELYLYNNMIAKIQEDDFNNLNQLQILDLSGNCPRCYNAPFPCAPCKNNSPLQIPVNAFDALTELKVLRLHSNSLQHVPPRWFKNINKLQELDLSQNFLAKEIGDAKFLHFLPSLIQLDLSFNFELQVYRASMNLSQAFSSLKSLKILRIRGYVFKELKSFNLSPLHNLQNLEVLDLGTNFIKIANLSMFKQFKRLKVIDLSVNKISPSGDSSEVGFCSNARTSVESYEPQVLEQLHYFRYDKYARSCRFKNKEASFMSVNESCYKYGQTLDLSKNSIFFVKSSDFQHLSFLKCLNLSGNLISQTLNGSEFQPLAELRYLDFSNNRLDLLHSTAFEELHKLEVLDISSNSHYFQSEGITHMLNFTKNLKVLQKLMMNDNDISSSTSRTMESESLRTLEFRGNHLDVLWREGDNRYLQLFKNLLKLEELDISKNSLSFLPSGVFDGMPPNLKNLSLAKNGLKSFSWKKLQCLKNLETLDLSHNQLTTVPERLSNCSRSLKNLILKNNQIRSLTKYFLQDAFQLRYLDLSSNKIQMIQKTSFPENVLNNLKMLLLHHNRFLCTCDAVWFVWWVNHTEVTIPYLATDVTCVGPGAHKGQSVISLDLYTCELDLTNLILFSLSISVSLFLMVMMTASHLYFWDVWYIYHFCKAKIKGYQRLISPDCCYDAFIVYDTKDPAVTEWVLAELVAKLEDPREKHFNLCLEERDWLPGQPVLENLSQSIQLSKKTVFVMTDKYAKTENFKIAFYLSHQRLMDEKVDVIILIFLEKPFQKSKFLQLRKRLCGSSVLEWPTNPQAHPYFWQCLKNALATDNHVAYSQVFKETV
The conditions noted are these: background statement; cited from earlier work.

In a further series the test system is Cyp and hERG. The settings on record: background statement; cited from earlier work.
Series [3] is described as follows: 30-day influencing factor stability test (heating, illumination, high humidity). Format: physicochemical. As for the experimental part:
The crystalline form A and crystalline form B of the compound of formula (I) were transferred and let stand in clean open weighing bottles to test the stability under the conditions of heating (40° C., 60° C.), illumination (4500 1×±500 1×) and high humidity (90%±5%, 75%±5%) during an inspection period of 30 days.

Series [4] in a line: Stability under long-term and accelerated conditions, 3 months. Type of series: physicochemical. As for the experimental part: The crystalline form B of the compound of formula (I) was examined for the stability under long-term (25° C., 60% RH) and accelerated (40° C., 75% RH) conditions in a period of 3 months.

T1 sequence (P08684 whole entry): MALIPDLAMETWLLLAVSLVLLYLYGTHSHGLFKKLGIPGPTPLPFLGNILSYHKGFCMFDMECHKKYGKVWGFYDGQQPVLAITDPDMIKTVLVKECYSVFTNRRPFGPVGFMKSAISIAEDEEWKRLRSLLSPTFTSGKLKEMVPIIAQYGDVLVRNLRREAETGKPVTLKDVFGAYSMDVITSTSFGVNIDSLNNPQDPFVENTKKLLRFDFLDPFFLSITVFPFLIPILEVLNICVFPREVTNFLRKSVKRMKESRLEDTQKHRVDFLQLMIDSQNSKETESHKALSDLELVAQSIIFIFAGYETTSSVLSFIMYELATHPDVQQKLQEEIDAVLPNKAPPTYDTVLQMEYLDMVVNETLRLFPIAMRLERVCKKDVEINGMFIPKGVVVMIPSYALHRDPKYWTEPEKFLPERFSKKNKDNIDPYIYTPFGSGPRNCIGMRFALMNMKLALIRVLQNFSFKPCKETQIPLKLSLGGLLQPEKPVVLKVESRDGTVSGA

The term IC50 denotes the concentration at which inhibition is half-maximal. Lower therefore signals greater potency in that assay. With `CCCC[C@](C)(CO)Nc1nc(N)nc2cc(-c3ccc(CN4CCN(C)CC4)nc3)cnc12` [Example 1, (R)-2-((2-amino-7-(6-((4-methylpiperazin-1-yl)methyl)pyridin-3-yl)pyrido[3,2-d]pyrimidin-4-yl)amino)-2-methylhexan-1-ol], the IC50 at 30 min in series [1] was greater than 30 µM. Also, the “IL-12 MEC (minimum effective concentration)” value in series [2] was determined as 41 nM.
Regarding `CCCC[C@](C)(CO)Nc1nc(N)nc2cc(F)cnc12` [GS-9688], the “Activity on TLR7 (in words)” value on TLR7 is listed as “certain activity on TLR7”. Besides, in the series on Cyp and hERG, the “Selectivity for Cyp and hERG (in words)” value was “poor selectivity for Cyp and hERG”.
In the case of `CCCN(CCC)C(=O)C1=Cc2ccc(-c3ccc(C(=O)N4CCCC4)cc3)cc2N=C(N)C1` [VTX-2337], at TLR7, the “Activity on TLR7 (in words)” value was “certain activity on TLR7”. Besides, in the series on Cyp and hERG, the “Selectivity for Cyp and hERG (in words)” value is “poor selectivity for Cyp and hERG”.
As to `CCCC[C@](C)(CO)Nc1nc(N)nc2cc(-c3ccc(CN4CCN(C)CC4)nc3)cnc12` [crystalline form A], the Purity in series [3] (40° C., 5 days) was 96.98%; in series [3] (40° C., 10 days), 96.98%; in series [3] (40° C., 30 days), 95.47%; in series [3] (60° C., 5 days), 95.87%; in series [3] (60° C., 10 days) it was 95.72%; in series [3] (60° C., 30 days), 93.74%. In addition, the Purity was 95.82% in series [3] (4500 lux, 5 days); 94.99% in series [3] (4500 lux, 10 days); 92.51% in series [3] (4500 lux, 30 days); 97.83% in series [3] (Initial, 0 days); 97.83% in series [3] (RH 75%, 5 days); 97.85% in series [3] (RH 75%, 10 days). For the same compound, the Purity in series [3] (RH 75%, 30 days) was found to be 97.47%; in series [3] (RH 90%, 5 days), 97.91%; in series [3] (RH 90%, 10 days) it was 97.84%; in series [3] (RH 90%, 30 days) it was 97.53%.
As to `CCCC[C@](C)(CO)Nc1nc(N)nc2cc(-c3ccc(CN4CCN(C)CC4)nc3)cnc12` [crystalline form B], the Purity is reported as 98.19% in series [3] (40° C., 5 days); 98.17% in series [3] (40° C., 10 days); 97.23% in series [3] (40° C., 30 days); 97.87% in series [3] (60° C., 5 days); 97.53% in series [3] (60° C., 10 days); 96.24% in series [3] (60° C., 30 days). The Purity in series [3] (4500 lux, 5 days) was 95.48%; in series [3] (4500 lux, 10 days), 92.61%; in series [3] (4500 lux, 30 days), 88.03%; in series [3] (Initial, 0 days), 98.65%; in series [3] (RH 75%, 5 days), 98.65%; in series [3] (RH 75%, 10 days) it was 98.69%. Moreover, the Purity is 97.96% in series [3] (RH 75%, 30 days); 98.69% in series [3] (RH 90%, 5 days); 98.75% in series [3] (RH 90%, 10 days); 97.99% in series [3] (RH 90%, 30 days); 99.71% in series [4] (25° C., 60% RH, Initial); 99.70% in series [4] (25° C., 60% RH, Month 1). The Purity in series [4] (25° C., 60% RH, Month 2) is 99.71%; in series [4] (25° C., 60% RH, Month 3) it was 99.62%; in series [4] (40° C., 75% RH, Initial), 99.71%; in series [4] (40° C., 75% RH, Month 1), 99.69%; in series [4] (40° C., 75% RH, Month 2) it was 99.68%; in series [4] (40° C., 75% RH, Month 3) it was 99.54%. Besides, the “Physical and chemical stability (in words)” value in series [4] (3 months, long-term (25° C., 60% RH) and accelerated (40° C., 75% RH)) was “good physical and chemical stabilities”.
